Key:
Tyrosinase = target: T1, Tyrosinase (Agaricus bisporus, UniProt O42713); test: Inhibition of mushroom tyrosinase
T1 sequence (O42713 whole entry): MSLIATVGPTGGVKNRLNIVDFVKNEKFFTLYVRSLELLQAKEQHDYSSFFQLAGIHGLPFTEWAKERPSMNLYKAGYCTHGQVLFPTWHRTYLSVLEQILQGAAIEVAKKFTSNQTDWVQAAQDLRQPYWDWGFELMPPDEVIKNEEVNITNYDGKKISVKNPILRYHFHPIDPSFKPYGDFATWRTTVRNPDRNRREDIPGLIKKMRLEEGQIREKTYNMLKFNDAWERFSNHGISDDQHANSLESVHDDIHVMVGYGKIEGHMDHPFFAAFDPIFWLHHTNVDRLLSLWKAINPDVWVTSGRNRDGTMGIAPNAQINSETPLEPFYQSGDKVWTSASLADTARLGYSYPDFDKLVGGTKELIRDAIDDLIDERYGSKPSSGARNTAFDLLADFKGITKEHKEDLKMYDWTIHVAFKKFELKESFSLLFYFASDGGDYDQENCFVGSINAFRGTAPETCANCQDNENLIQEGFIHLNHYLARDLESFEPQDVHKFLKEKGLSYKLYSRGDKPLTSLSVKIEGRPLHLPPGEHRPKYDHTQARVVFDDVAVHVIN

[1] = target: T2, Tyrosinase (Agaricus bisporus) (UniProt O42713); test: Inhibition of mushroom tyrosinase at 400 uM
T2 sequence (whole entry): T1 sequence (O42713 whole entry)

[2] = target: T2, Tyrosinase (Agaricus bisporus); test: Inhibition of mushroom tyrosinase at 100 uM
[3] = target: T2, Tyrosinase (Agaricus bisporus); test: Inhibition of mushroom tyrosinase at 200 uM

- IC50 (Tyrosinase): 208 µM
- inhibition [1]: 61.6%
- inhibition [2]: 28.6%
- inhibition [3]: 48.4%
Structure (SMILES): C[C@]1(CO)C=Cc2cc(O)ccc2O1 [DAEDALIN A]

— ChEMBL document CHEMBL1159048, “Asymmetric syntheses of daedalin A and quercinol and their tyrosinase inhibitory activity” (Bioorg Med Chem Lett, 2010)
